Measurements reported in the supplement of paper PMC10883282.
± gives the standard deviation of the averaged measurements.

Columns and labels:
Assay in all cases: relative viability vs DMSO control (72 h) (fraction); higher = more viable cells
KHOS-240S = system: KHOS-240S
Method in brief: (§1)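 Relative viability was measured with ATPLite and expressed as percent growth, averaged across up to triplicate wells. Sarcoma cell lines had been seeded in 384-well plates to reach 80–90% confluence, dosed after 24 h, and incubated 72 h at 37 °C, 5% CO2. All data were rescaled on a scale where 1 is full and 0 is none.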

RD = system: RD
Method in brief: as §1

SYO-1 = system: SYO-1
Method in brief: as §1

MES-SA = system: MES-SA
Method in brief: as §1

SW1353 = system: SW1353
Method in brief: as §1

SW982 = system: SW982
Method in brief: as §1

VA-ES-BJ = system: VA-ES-BJ
Method in brief: as §1

HT1080 = system: HT1080
Method in brief: as §1

SK-LMS-1 = system: SK-LMS-1
Method in brief: as §1

RD-ES = system: RD-ES
Method in brief: as §1

G401 = system: G401
Method in brief: as §1

SK-ES-1 = system: SK-ES-1
Method in brief: as §1

CC(C)Oc1ccc(-c2nn([C@@H](C)c3oc4ccc(F)cc4c(=O)c3-c3cccc(F)c3)c3ncnc(N)c23)cc1F [Umbralisib]
Conditions	relative viability
G401, 0.00017 µM	1.02 ± 0.045
G401, 0.00051 µM	1.068 ± 0.006
G401, 0.00152 µM	1.09 ± 0.038
G401, 0.00457 µM	1.05 ± 0.035
G401, 0.01372 µM	1.03 ± 0.023
G401, 0.04115 µM	1.01 ± 0.052
G401, 0.1235 µM	1.02 ± 0.026
G401, 0.3704 µM	0.99 ± 0.051
G401, 1.111 µM	0.988 ± 0.031
G401, 3.333 µM	1.05 ± 0.071
G401, 10 µM	1.1 ± 0.03
HT1080, 0.00017 µM	1.07 ± 0.04
HT1080, 0.00051 µM	1.09 ± 0.035
HT1080, 0.00152 µM	1.07 ± 0.037
HT1080, 0.00457 µM	1.09 ± 0.027
HT1080, 0.01372 µM	1.06 ± 0.067
HT1080, 0.04115 µM	1.069 ± 0.0096
HT1080, 0.1235 µM	1.08 ± 0.028
HT1080, 0.3704 µM	1.07 ± 0.043
HT1080, 1.111 µM	1.05 ± 0.032
HT1080, 3.333 µM	1.05 ± 0.03
HT1080, 10 µM	0.955 ± 0.029
KHOS-240S, 0.00017 µM	1.05 ± 0.015
KHOS-240S, 0.00051 µM	1.08 ± 0.024
KHOS-240S, 0.00152 µM	1.09 ± 0.029
KHOS-240S, 0.00457 µM	1.08 ± 0.04
KHOS-240S, 0.01372 µM	1.07 ± 0.033
KHOS-240S, 0.04115 µM	1.06 ± 0.013
KHOS-240S, 0.1235 µM	1.07 ± 0.037
KHOS-240S, 0.3704 µM	1.06 ± 0.034
KHOS-240S, 1.111 µM	1.03 ± 0.031
KHOS-240S, 3.333 µM	1 ± 0.054
KHOS-240S, 10 µM	0.909 ± 0.027
MES-SA, 0.00017 µM	0.946 ± 0.016
MES-SA, 0.00051 µM	0.928 ± 0.042
MES-SA, 0.00152 µM	0.94 ± 0.02
MES-SA, 0.00457 µM	0.981 ± 0.021
MES-SA, 0.01372 µM	0.957 ± 0.043
MES-SA, 0.04115 µM	0.9436 ± 0.0079
MES-SA, 0.1235 µM	0.943 ± 0.038
MES-SA, 0.3704 µM	0.945 ± 0.045
MES-SA, 1.111 µM	0.937 ± 0.019
MES-SA, 3.333 µM	0.922 ± 0.032
MES-SA, 10 µM	0.747 ± 0.021
RD, 0.00017 µM	1.1 ± 0.026
RD, 0.00051 µM	1.08 ± 0.033
RD, 0.00152 µM	1.11 ± 0.041
RD, 0.00457 µM	1.1 ± 0.033
RD, 0.01372 µM	1.113 ± 0.011
RD, 0.04115 µM	1.11 ± 0.016
RD, 0.1235 µM	1.12 ± 0.032
RD, 0.3704 µM	1.08 ± 0.026
RD, 1.111 µM	1.14 ± 0.016
RD, 3.333 µM	1.11 ± 0.027
RD, 10 µM	1.11 ± 0.055
RD-ES, 0.00017 µM	1 ± 0.037
RD-ES, 0.00051 µM	1 ± 0.035
RD-ES, 0.00152 µM	1.01 ± 0.043
RD-ES, 0.00457 µM	1.001 ± 0.0029
RD-ES, 0.01372 µM	0.979 ± 0.017
RD-ES, 0.04115 µM	1 ± 0.019
RD-ES, 0.1235 µM	1.02 ± 0.022
RD-ES, 0.3704 µM	1 ± 0.035
RD-ES, 1.111 µM	0.994 ± 0.031
RD-ES, 3.333 µM	1.01 ± 0.022
RD-ES, 10 µM	1.02 ± 0.022
SK-ES-1, 0.00017 µM	1.07 ± 0.024
SK-ES-1, 0.00051 µM	1.07 ± 0.043
SK-ES-1, 0.00152 µM	1.05 ± 0.084
SK-ES-1, 0.00457 µM	1.07 ± 0.025
SK-ES-1, 0.01372 µM	1.06 ± 0.046
SK-ES-1, 0.04115 µM	1.09 ± 0.011
SK-ES-1, 0.1235 µM	1.04 ± 0.043
SK-ES-1, 0.3704 µM	1.04 ± 0.039
SK-ES-1, 1.111 µM	1.04 ± 0.04
SK-ES-1, 3.333 µM	1.08 ± 0.078
SK-ES-1, 10 µM	1.02 ± 0.037
SK-LMS-1, 0.00017 µM	1.07 ± 0.032
SK-LMS-1, 0.00051 µM	1.06 ± 0.04
SK-LMS-1, 0.00152 µM	1.06 ± 0.018
SK-LMS-1, 0.00457 µM	1.04 ± 0.029
SK-LMS-1, 0.01372 µM	1.05 ± 0.034
SK-LMS-1, 0.04115 µM	1.05 ± 0.045
SK-LMS-1, 0.1235 µM	1.03 ± 0.061
SK-LMS-1, 0.3704 µM	1.06 ± 0.032
SK-LMS-1, 1.111 µM	1.02 ± 0.026
SK-LMS-1, 3.333 µM	0.875 ± 0.023
SK-LMS-1, 10 µM	0.752 ± 0.0095
SW982, 0.00017 µM	1.03 ± 0.033
SW982, 0.00051 µM	1.078 ± 0.0034
SW982, 0.00152 µM	1.07 ± 0.015
SW982, 0.00457 µM	1.06 ± 0.03
SW982, 0.01372 µM	1.05 ± 0.017
SW982, 0.04115 µM	1.067 ± 0.006
SW982, 0.1235 µM	1.07 ± 0.027
SW982, 0.3704 µM	1.079 ± 0.01
SW982, 1.111 µM	1.063 ± 0.006
SW982, 3.333 µM	1.08 ± 0.025
SW982, 10 µM	1.12 ± 0.02
SW1353, 0.00017 µM	1.03 ± 0.085
SW1353, 0.00051 µM	1.03 ± 0.03
SW1353, 0.00152 µM	1.032 ± 0.0039
SW1353, 0.00457 µM	1.06 ± 0.039
SW1353, 0.01372 µM	1.03 ± 0.027
SW1353, 0.04115 µM	1 ± 0.067
SW1353, 0.1235 µM	1.01 ± 0.029
SW1353, 0.3704 µM	0.959 ± 0.015
SW1353, 1.111 µM	0.97 ± 0.015
SW1353, 3.333 µM	0.946 ± 0.045
SW1353, 10 µM	0.8866 ± 0.0019
SYO-1, 0.00017 µM	1.04 ± 0.013
SYO-1, 0.00051 µM	1.02 ± 0.042
SYO-1, 0.00152 µM	1.03 ± 0.053
SYO-1, 0.00457 µM	1.03 ± 0.032
SYO-1, 0.01372 µM	1.03 ± 0.046
SYO-1, 0.04115 µM	0.995 ± 0.063
SYO-1, 0.1235 µM	1.01 ± 0.045
SYO-1, 0.3704 µM	1.02 ± 0.03
SYO-1, 1.111 µM	0.975 ± 0.046
SYO-1, 3.333 µM	0.968 ± 0.028
SYO-1, 10 µM	0.897 ± 0.042
VA-ES-BJ, 0.00017 µM	1.07 ± 0.048
VA-ES-BJ, 0.00051 µM	1.07 ± 0.026
VA-ES-BJ, 0.00152 µM	1.11 ± 0.016
VA-ES-BJ, 0.00457 µM	1.08 ± 0.049
VA-ES-BJ, 0.01372 µM	1.08 ± 0.052
VA-ES-BJ, 0.04115 µM	1.05 ± 0.064
VA-ES-BJ, 0.1235 µM	1.07 ± 0.016
VA-ES-BJ, 0.3704 µM	1.05 ± 0.084
VA-ES-BJ, 1.111 µM	1.05 ± 0.062
VA-ES-BJ, 3.333 µM	1.05 ± 0.031
VA-ES-BJ, 10 µM	1.1 ± 0.055
